Results: US20240067662A1, “KRAS INHIBITORS” (Bristol-Myers Squibb Company, priority 2022, published 2024)

Molecular target: GMPPNP-loaded KRAS G12C (Homo sapiens, UniProt P01116, G12C)
Assay: KRAS G12C RAF Disruption Assay (HTRF)
Assay type: biochemical
Details: recombinant GMPPNP-loaded KRAS G12C (5 nM), 20 min with compound; GST-RAF1 RBD (9 nM); HTRF signal; read-out: KRASG12C RAF Disruption Assay (IC50)
How it was run: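 GMPPNP-loaded KRAS G12C (5 nM) was preincubated with compound for 20 min at room temperature in Tris pH 7.5 buffer with NaCl, MgCl2, DTT and BSA. GST-RAF1 RBD (9 nM) was added for 20 min, then SA-Tb (0.25 nM) for 3 h. IC50 was fitted from the HTRF 520/495 ratio.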

Sequence of GMPPNP-loaded KRAS G12C (P01116 1-188 isoform P01116-2 G12C): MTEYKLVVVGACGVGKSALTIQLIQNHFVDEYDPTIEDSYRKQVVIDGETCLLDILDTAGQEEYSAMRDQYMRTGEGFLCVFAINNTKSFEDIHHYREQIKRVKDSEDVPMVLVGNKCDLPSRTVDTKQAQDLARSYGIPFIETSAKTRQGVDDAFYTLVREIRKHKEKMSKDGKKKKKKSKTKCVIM

Compound | IC50 [nM]
CN(c1nc(OC[C@@]23CCCN2C[C@H](F)C3)nc2c(F)c(-c3c(F)cc(F)c4sc(N)nc34)ncc12)[C@@H]1CCN(C(=O)/C(F)=C/c2ccccn2)C1 [Compound 119, (Z)-1-((3R)-3-((7-(2-amino-5,7-difluorobenzo[d]thiazol-4-yl)-8-fluoro-2-(((7aS)-2-fluorotetrahydro-1H-pyrrolizin-7a(5H)-yl)methoxy)pyrido[4,3-d]pyrimidin-4-yl)(methyl)amino)pyrrolidin-1-yl)-2-fluoro-3-(pyridin-2-yl)prop-2-en-1-one] | 5
C#Cc1c(F)ccc2cc(O)cc(-c3ncc4c(N5C[C@H]6CC[C@@H](C5)N6C(=O)/C(F)=C/c5ccncn5)nc(OC[C@@]56CCCN5C[C@H](F)C6)nc4c3F)c12 [Compound 18, (Z)-1-((1R, 5S)-3-(7-(8-ethynyl-7-fluoro-3-hydroxynaphthalen-1-yl)-8-fluoro-2-(((2R, 7aS)-2-fluorotetrahydro-1H-pyrrolizin-7a(5H)-yl)methoxy)pyrido[4,3-d]pyrimidin-4-yl)-3,8-diazabicyclo[3.2.1]octan-8-yl)-2-fluoro-3-(pyrimidin-4-yl)prop-2-en-1-one] | 25
N#CC[C@H]1CN(c2nc(OC[C@@]34CCCN3C[C@H](F)C4)nc3c(F)c(-c4ccccc4C4CC4)ncc23)CCN1C(=O)/C(F)=C/c1ccccn1 [Compound 79, 2-((2S)-4-(7-(2-cyclopropylphenyl)-8-fluoro-2-(((2R, 7aS)-2-fluorotetrahydro-1H-pyrrolizin-7a(5H)-yl)methoxy)pyrido[4,3-d]pyrimidin-4-yl)-1-((Z)-2-fluoro-3-(pyridin-2-yl)acryloyl)piperazin-2-yl)acetonitrile] | 65
CN1CCC[C@H]1COc1nc(N2CCN(C(=O)/C(F)=C/c3ccccn3)[C@@H](CC#N)C2)c2cnc(-c3cccc4cccc(Cl)c34)c(F)c2n1 [Compound 19A, 2-((S)-4-(7-(8-chloronaphthalen-1-yl)-8-fluoro-2-(((S)-1-methylpyrrolidin-2-yl)methoxy)pyrido[4,3-d]pyrimidin-4-yl)-1-((Z)-2-fluoro-3-(pyridin-2-yl)acryloyl)piperazin-2-yl)acetonitrile] | 59
C#Cc1cccc2cccc(-c3ncc4c(N(C)[C@H]5CN(C(=O)/C(F)=C/c6nccs6)C[C@H]5F)nc(OC[C@@]56CCCN5C[C@H](F)C6)nc4c3F)c12 [Compound 129, (Z)-1-((3S,4R)-3-((7-(8-ethynylnaphthalen-1-yl)-8-fluoro-2-(((2R, 7aS)-2-fluorotetrahydro-1H-pyrrolizin-7a(5H)-yl)methoxy)pyrido[4,3-d]pyrimidin-4-yl)(methyl)amino)-4-fluoropyrrolidin-1-yl)-2-fluoro-3-(thiazol-2-yl)prop-2-en-1-one] | 200
C#Cc1cccc2cccc(-c3ncc4c(N5CCC6(CCN6C(=O)/C(F)=C/c6ncccn6)C5)nc(OC[C@@]56CCCN5C[C@H](F)C6)nc4c3F)c12 (single isomer, unassigned) [Compound 105] | 9700
C#Cc1c(F)ccc2cc(O)cc(-c3ncc4c(N5C[C@H]6CC[C@@H](C5)N6C(=O)/C(F)=C/c5cccc(OC)n5)nc(OC[C@@]56CCCN5C[C@H](F)C6)nc4c3F)c12 [Compound 17, (Z)-1-((1R, 5S)-3-(7-(8-ethynyl-7-fluoro-3-hydroxynaphthalen-1-yl)-8-fluoro-2-(((2R, 7aS)-2-fluorotetrahydro-1H-pyrrolizin-7a(5H)-yl)methoxy)pyrido[4,3-d]pyrimidin-4-yl)-3,8-diazabicyclo[3.2.1]octan-8-yl)-2-fluoro-3-(6-methoxypyridin-2-yl)prop-2-en-1-one] | 2600
CN1CCC[C@H]1COc1nc(N2CCN(C(=O)/C(F)=C/c3ncccn3)[C@@H](CC#N)C2)c2cnc(-c3cccc4cccc(Cl)c34)c(F)c2n1 [Compound 20, 2-((S)-4-(7-(8-chloronaphthalen-1-yl)-8-fluoro-2-(((S)-1-methylpyrrolidin-2-yl)methoxy)pyrido[4,3-d]pyrimidin-4-yl)-1-((Z)-2-fluoro-3-(pyrimidin-2-yl)acryloyl)piperazin-2-yl)acetonitrile] | 89
C#Cc1cccc2cccc(-c3ncc4c(N5CC[C@@H]6CN(C(=O)/C(F)=C/c7ncccn7)C[C@@H]65)nc(OC[C@@]56CCCN5C[C@H](F)C6)nc4c3F)c12 [Compound 86, (Z)-1-((3aR, 6aR)-1-(7-(8-ethynylnaphthalen-1-yl)-8-fluoro-2-(((2R, 7aS)-2-fluorotetrahydro-1H-pyrrolizin-7a(5H)-yl)methoxy)pyrido[4,3-d]pyrimidin-4-yl)hexahydropyrrolo[3,4-b]pyrrol-5(1H)-yl)-2-fluoro-3-(pyrimidin-2-yl)prop-2-en-1-one] | 110
C#Cc1c(F)ccc2cc(O)cc(-c3ncc4c(N5CCN(C(=O)/C(F)=C/c6ncccn6)C[C@@H]5C)nc(OC[C@@]56CCCN5C[C@H](F)C6)nc4c3F)c12 [Example 66, (Z)-1-((S)-4-(7-(8-ethynyl-7-fluoro-3-hydroxynaphthalen-1-yl)-8-fluoro-2-(((2R, 7aS)-2-fluorotetrahydro-1H-pyrrolizin-7a(5H)-yl)methoxy)pyrido[4,3-d]pyrimidin-4-yl)-3-methylpiperazin-1-yl)-2-fluoro-3-(pyrimidin-2-yl)prop-2-en-1-one] | < 2
C#Cc1cccc2cccc(-c3ncc4c(N5CCCN(C(=O)/C(F)=C/c6nccs6)CC5)nc(OC[C@@]56CCCN5C[C@H](F)C6)nc4c3F)c12 [Compound 78, (Z)-1-(4-(7-(8-ethynylnaphthalen-1-yl)-8-fluoro-2-(((2R, 7aS)-2-fluorotetrahydro-1H-pyrrolizin-7a(5H)-yl)methoxy)pyrido[4,3-d]pyrimidin-4-yl)-1,4-diazepan-1-yl)-2-fluoro-3-(thiazol-2-yl)prop-2-en-1-one] | 120
C#Cc1cccc2cccc(-c3ncc4c(N5CCN(C(=O)/C(F)=C/c6cccnn6)CC5)nc(OC[C@@]56CCCN5C[C@H](F)C6)nc4c3F)c12 [Compound 127, (Z)-1-(4-(7-(8-ethynylnaphthalen-1-yl)-8-fluoro-2-(((2R, 7aS)-2-fluorotetrahydro-1H-pyrrolizin-7a(5H)-yl)methoxy)pyrido[4,3-d]pyrimidin-4-yl)piperazin-1-yl)-2-fluoro-3-(pyridazin-3-yl)prop-2-en-1-one] | 10
C#Cc1c(F)ccc2cc(O)cc(-c3ncc4c(N5C[C@H]6CC[C@@H](C5)N6C(=O)/C(F)=C/c5cnccn5)nc(OC[C@@]56CCCN5C[C@H](F)C6)nc4c3F)c12 [Compound 16, (Z)-1-((1R, 5S)-3-(7-(8-ethynyl-7-fluoro-3-hydroxynaphthalen-1-yl)-8-fluoro-2-(((2R, 7aS)-2-fluorotetrahydro-1H-pyrrolizin-7a(5H)-yl)methoxy)pyrido[4,3-d]pyrimidin-4-yl)-3,8-diazabicyclo[3.2.1]octan-8-yl)-2-fluoro-3-(pyrazin-2-yl)prop-2-en-1-one] | 180
C#Cc1cccc2cccc(-c3nc(OC)c4c(N5CCN(C(=O)/C(F)=C/c6ccccn6)CC5)nc(OC[C@@]56CCCN5C[C@H](F)C6)nc4c3F)c12 [Compound 109, (Z)-1-(4-(7-(8-ethynylnaphthalen-1-yl)-8-fluoro-2-(((2R, 7aS)-2-fluorotetrahydro-1H-pyrrolizin-7a(5H)-yl)methoxy)-5-methoxypyrido[4,3-d]pyrimidin-4-yl)piperazin-1-yl)-2-fluoro-3-(pyridin-2-yl)prop-2-en-1-one] | 240
C#Cc1c(F)ccc2cc(O)cc(-c3ncc4c(N5CCN(C(=O)/C(F)=C/c6ccccn6)C[C@@H]5C)nc(OC[C@@]56CCCN5C[C@H](F)C6)nc4c3F)c12 [Example 65, (Z)-1-((S)-4-(7-(8-ethynyl-7-fluoro-3-hydroxynaphthalen-1-yl)-8-fluoro-2-(((2R, 7aS)-2-fluorotetrahydro-1H-pyrrolizin-7a(5H)-yl)methoxy)pyrido[4,3-d]pyrimidin-4-yl)-3-methylpiperazin-1-yl)-2-fluoro-3-(pyridin-2-yl)prop-2-en-1-one] | 4.5
C#Cc1cccc2cccc(-c3ncc4c(N(C)C5CCN(C(=O)/C(F)=C/c6ccccn6)C5C)nc(OC[C@@]56CCCN5C[C@H](F)C6)nc4c3F)c12 (single isomer, unassigned) [Example 74 trans isomer 1] | 2.5
C#Cc1cccc2cccc(-c3ncc4c(N5CCN(C(=O)/C(F)=C/c6ccccn6)C[C@@H]5C)nc(OC[C@@]56CCCN5C[C@H](F)C6)nc4c3F)c12 [Example 63, (Z)-1-((S)-4-(7-(8-ethynylnaphthalen-1-yl)-8-fluoro-2-(((2R, 7aS)-2-fluorotetrahydro-1H-pyrrolizin-7a(5H)-yl)methoxy)pyrido[4,3-d]pyrimidin-4-yl)-3-methylpiperazin-1-yl)-2-fluoro-3-(pyridin-2-yl)prop-2-en-1-one] | 180
CN1CCC[C@H]1COc1nc(N2CCN(C(=O)/C(F)=C/c3ccccn3)[C@@H](CC#N)C2)c2cnc(-c3cccc4ccc(F)cc34)c(F)c2n1 [Example 36, 2-((S)-1-((Z)-2-fluoro-3-(pyridin-2-yl)acryloyl)-4-(8-fluoro-7-(7-fluoronaphthalen-1-yl)-2-(((S)-1-methylpyrrolidin-2-yl)methoxy)pyrido[4,3-d]pyrimidin-4-yl)piperazin-2-yl)acetonitrile] | 150
CN1CCC[C@H]1COc1nc(N2CCN(C(=O)/C(F)=C/c3nccs3)[C@@H](CC#N)C2)c2cnc(-c3cccc4cccc(Cl)c34)c(F)c2n1 [Compound 21A, 2-((S)-4-(7-(8-chloronaphthalen-1-yl)-8-fluoro-2-(((S)-1-methylpyrrolidin-2-yl)methoxy)pyrido[4,3-d]pyrimidin-4-yl)-1-((Z)-2-fluoro-3-(thiazol-2-yl)acryloyl)piperazin-2-yl)acetonitrile] | 67
